Test results reported in ChEMBL document CHEMBL3745709, “Synthesis of novel ethyl 1-ethyl-6-fluoro-7-(fatty amido)-1,4-dihydro-4-oxoquinoline-3-carboxylate derivatives and their biological evaluation” (Bioorg Med Chem Lett, 2016).
Converted amounts (≈) assume the structure as drawn.

Legend:
[1] = Cytotoxicity against human SKOV3 cells assessed as reduction in cell viability by MTT assay; assay type: functional, cell-based; conditions: SK-OV-3
Escherichia coli [2] = test: Antibacterial activity against Escherichia coli MTCC 739 assessed as inhibition zone after 24 hrs at 30 degC by well diffusion method; assay type: functional; conditions: MTCC 739, 24 h
[Candida] aaseri [3] = Antifungal activity against Candida aaseri MTCC 1962 assessed as inhibition zone after 24 hrs at 30 degC by well diffusion method; assay type: functional; conditions: Yamadazyma aaseri, MTCC 1962, 24 h
[4] = Cytotoxicity against human DU145 cells assessed as reduction in cell viability by MTT assay; assay type: functional, cell-based; conditions: DU-145
Staphylococcus aureus [5] = test: Antibiofilm activity against Staphylococcus aureus MLS-16 MTCC 2940 after 24 hrs by crystal violet staining method; assay type: functional, organism-based; conditions: MLS-16 MTCC 2940, 24 h
A549 [6] = test: Cytotoxicity against human A549 cells assessed as reduction in cell viability by MTT assay; assay type: functional, cell-based
Candida albicans [7] = test: Antifungal activity against Candida albicans MTCC 3018 assessed as inhibition zone after 24 hrs at 30 degC by well diffusion method; assay type: functional; conditions: MTCC 3018, 24 h
Escherichia coli [8] = test: Antibiofilm activity against Escherichia coli MTCC 739 after 24 hrs by crystal violet staining method; assay type: functional, organism-based; conditions: MTCC 739, 24 h
Candida albicans [9] = test: Antifungal activity against Candida albicans MTCC 183 assessed as inhibition zone after 24 hrs at 30 degC by well diffusion method; assay type: functional; conditions: MTCC 183, 24 h
[10] = Cytotoxicity against human IMR90 cells assessed as reduction in cell viability by MTT assay; assay type: cell-based; conditions: IMR-90
IMR-90 [11] = test: Selectivity index, ratio of IC50 for human IMR90 cells to IC50 for human DU145 cells; assay type: functional
Staphylococcus aureus [12] = test: Bactericidal activity against Staphylococcus aureus MTCC 96 assessed as microbial killing after 24 hrs; assay type: functional; conditions: MTCC 96, 24 h
Candida albicans [13] = test: Fungicidal activity against Candida albicans MTCC 227 assessed as microbial killing after 24 hrs; assay type: functional; conditions: MTCC 227, 24 h
Candida albicans [14] = test: Fungicidal activity against Candida albicans MTCC 3958 assessed as microbial killing after 24 hrs; assay type: functional; conditions: MTCC 3958, 24 h
[Candida] aaseri [15] = Fungicidal activity against Candida aaseri MTCC 1962 assessed as microbial killing after 24 hrs; assay type: functional; conditions: Yamadazyma aaseri, MTCC 1962, 24 h
Candida albicans [16] = test: Fungicidal activity against Candida albicans MTCC 183 assessed as microbial killing after 24 hrs; assay type: functional; conditions: MTCC 183, 24 h
Nakaseomyces glabratus [17] = test: Antifungal activity against Candida glabrata MTCC 3019 assessed as inhibition zone after 24 hrs at 30 degC by well diffusion method; assay type: functional; conditions: MTCC 3019, 24 h
Micrococcus luteus = test: Antibacterial activity against Micrococcus luteus MTCC 2470 assessed as inhibition zone after 24 hrs at 30 degC by well diffusion method; assay type: functional; conditions: MTCC 2470, 24 h
SK-OV-3 = test: Selectivity index, ratio of IC50 for human IMR90 cells to IC50 for human SKOV3 cells; assay type: functional
Candida albicans [18] = test: Antifungal activity against Candida albicans MTCC 854 assessed as inhibition zone after 24 hrs at 30 degC by well diffusion method; assay type: functional; conditions: MTCC 854, 24 h
Bacillus subtilis [19] = test: Antibacterial activity against Bacillus subtilis MTCC 121 assessed as inhibition zone after 24 hrs at 30 degC by well diffusion method; assay type: functional; conditions: MTCC 121, 24 h
Candida albicans [20] = test: Antifungal activity against Candida albicans MTCC 1637 assessed as inhibition zone after 24 hrs at 30 degC by well diffusion method; assay type: functional; conditions: MTCC 1637, 24 h
Raoultella planticola = test: Antibacterial activity against Klebsiella planticola MTCC 530 assessed as inhibition zone after 24 hrs at 30 degC by well diffusion method; assay type: functional; conditions: MTCC 530, 24 h
Escherichia coli [21] = test: Bactericidal activity against Escherichia coli MTCC 739 assessed as microbial killing after 24 hrs; assay type: functional; conditions: MTCC 739, 24 h
Staphylococcus aureus [22] = test: Antibacterial activity against Staphylococcus aureus MTCC 96 […] after 24 hrs at 30 degC by well diffusion method; assay type: functional; conditions: MTCC 96, 24 h
[23] = Antioxidant activity assessed as DPPH free radical scavenging activity; assay type: physicochemical
Candida albicans [24] = test: Fungicidal activity against Candida albicans MTCC 4748 assessed as microbial killing after 24 hrs; assay type: functional; conditions: MTCC 4748, 24 h
Candida albicans [25] = test: Antifungal activity against Candida albicans MTCC 3017 […] after 24 hrs at 30 degC by well diffusion method; assay type: functional; conditions: MTCC 3017, 24 h
Pichia kudriavzevii [26] = test: Antifungal activity against Candida krusei MTCC 3020 assessed as inhibition zone after 24 hrs at 30 degC by well diffusion method; assay type: functional; conditions: MTCC 3020, 24 h
Bacillus subtilis [27] = test: Antibiofilm activity against Bacillus subtilis MTCC 121 after 24 hrs by crystal violet staining method; assay type: functional, organism-based; conditions: MTCC 121, 24 h
Candida parapsilosis [28] = test: Antifungal activity against Candida parapsilosis MTCC 1744 assessed as inhibition zone after 24 hrs at 30 degC by well diffusion method; assay type: functional; conditions: Lodderomyces parapsilosis, MTCC 1744, 24 h
Candida albicans [29] = test: Fungicidal activity against Candida albicans MTCC 3017 assessed as microbial killing after 24 hrs; assay type: functional; conditions: MTCC 3017, 24 h
Candida albicans [30] = test: Fungicidal activity against Candida albicans MTCC 854 assessed as microbial killing after 24 hrs; assay type: functional; conditions: MTCC 854, 24 h
Pichia kudriavzevii [31] = test: Fungicidal activity against Candida krusei MTCC 3020 assessed as microbial killing after 24 hrs; assay type: functional; conditions: MTCC 3020, 24 h
Pichia sporocuriosa [32] = test: Fungicidal activity against Issatchenkia hanoiensis MTCC 4755 assessed as microbial killing after 24 hrs; assay type: functional; conditions: MTCC 4755, 24 h
MCF7 = test: Cytotoxicity against human MCF7 cells assessed as reduction in cell viability by MTT assay; assay type: functional, cell-based
Staphylococcus aureus [33] = test: Bactericidal activity against Staphylococcus aureus MLS-16 MTCC 2940 assessed as microbial killing after 24 hrs; assay type: functional; conditions: MLS-16 MTCC 2940, 24 h
Pseudomonas aeruginosa = test: Antibacterial activity against Pseudomonas aeruginosa MTCC 2453 assessed as inhibition zone after 24 hrs at 30 degC by well diffusion method; assay type: functional; conditions: MTCC 2453, 24 h
Candida albicans [34] = test: Fungicidal activity against Candida albicans MTCC 3018 assessed as microbial killing after 24 hrs; assay type: functional; conditions: MTCC 3018, 24 h
Staphylococcus aureus [35] = test: Antibacterial activity against Staphylococcus aureus MLS-16 MTCC 2940 assessed as inhibition zone after 24 hrs at 30 degC by well diffusion method; assay type: functional; conditions: MLS-16 MTCC 2940, 24 h
Bacillus subtilis [36] = test: Bactericidal activity against Bacillus subtilis MTCC 121 assessed as microbial killing after 24 hrs; assay type: functional; conditions: MTCC 121, 24 h
Candida albicans [37] = test: Antifungal activity against Candida albicans MTCC 7315 assessed as inhibition zone after 24 hrs at 30 degC by well diffusion method; assay type: functional; conditions: MTCC 7315, 24 h
Candida albicans [38] = test: Antifungal activity against Candida albicans MTCC 3958 assessed as inhibition zone after 24 hrs at 30 degC by well diffusion method; assay type: functional; conditions: MTCC 3958, 24 h
Candida albicans [39] = test: Antifungal activity against Candida albicans MTCC 4748 assessed as inhibition zone after 24 hrs at 30 degC by well diffusion method; assay type: functional; conditions: MTCC 4748, 24 h
Candida parapsilosis [40] = test: Fungicidal activity against Candida parapsilosis MTCC 1744 assessed as microbial killing after 24 hrs; assay type: functional; conditions: Lodderomyces parapsilosis, MTCC 1744, 24 h
Staphylococcus aureus [41] = test: Antibiofilm activity against Staphylococcus aureus MTCC 96 after 24 hrs by crystal violet staining method; assay type: functional, organism-based; conditions: MTCC 96, 24 h
IMR-90 [42] = test: Selectivity index, ratio of IC50 for human IMR90 cells to IC50 for human MCF7 cells; assay type: functional
Candida albicans [43] = test: Fungicidal activity against Candida albicans MTCC 1637 assessed as microbial killing after 24 hrs; assay type: functional; conditions: MTCC 1637, 24 h
A549 [44] = test: Selectivity index, ratio of IC50 for human IMR90 cells to IC50 for human A549 cells; assay type: functional
Candida albicans [45] = test: Fungicidal activity against Candida albicans MTCC 7315 assessed as microbial killing after 24 hrs; assay type: functional; conditions: MTCC 7315, 24 h
Candida albicans [46] = test: Antifungal activity against Candida albicans MTCC 227 assessed as inhibition zone after 24 hrs at 30 degC by well diffusion method; assay type: functional; conditions: MTCC 227, 24 h
Nakaseomyces glabratus [47] = test: Fungicidal activity against Candida glabrata MTCC 3019 assessed as microbial killing after 24 hrs; assay type: functional; conditions: MTCC 3019, 24 h
Pichia sporocuriosa [48] = test: Antifungal activity against Issatchenkia hanoiensis MTCC 4755 assessed as inhibition zone after 24 hrs at 30 degC by well diffusion method; assay type: functional; conditions: MTCC 4755, 24 h

MIC (Escherichia coli [2]): 15.6 µg/mL (≈ 41.4 µM)
MIC ([Candida] aaseri [3]): 31.2 µg/mL (≈ 82.9 µM)
IC50 (Staphylococcus aureus [5]): 9.8 µg/mL (≈ 26 µM)
MIC (Candida albicans [7]): 62.5 µg/mL (≈ 166 µM)
IC50 (Escherichia coli [8]): 8.7 µg/mL (≈ 23.1 µM)
MIC (Candida albicans [9]): 15.6 µg/mL (≈ 41.4 µM)
MIC (Nakaseomyces glabratus [17]): 31.2 µg/mL (≈ 82.9 µM)
MIC (Micrococcus luteus): > 125 µg/mL
MIC (Candida albicans [18]): 31.2 µg/mL (≈ 82.9 µM)
MIC (Bacillus subtilis [19]): 7.8 µg/mL (≈ 20.7 µM)
MIC (Candida albicans [20]): 31.2 µg/mL (≈ 82.9 µM)
MIC (Staphylococcus aureus [22]): 3.9 µg/mL (≈ 10.4 µM)
EC50 [23]: 33.8 µg/mL (≈ 89.8 µM)
MIC (Candida albicans [25]): 31.2 µg/mL (≈ 82.9 µM)
MIC (Pichia kudriavzevii [26]): 62.5 µg/mL (≈ 166 µM)
IC50 (Bacillus subtilis [27]): 4.6 µg/mL (≈ 12.2 µM)
MIC (Candida parapsilosis [28]): 31.2 µg/mL (≈ 82.9 µM)
MIC (Pseudomonas aeruginosa): > 125 µg/mL
MIC (Staphylococcus aureus [35]): 15.6 µg/mL (≈ 41.4 µM)
MIC (Candida albicans [37]): 31.2 µg/mL (≈ 82.9 µM)
MIC (Candida albicans [38]): 31.2 µg/mL (≈ 82.9 µM)
MIC (Candida albicans [39]): 31.2 µg/mL (≈ 82.9 µM)
IC50 (Staphylococcus aureus [41]): 2.1 µg/mL (≈ 5.58 µM)
MIC (Candida albicans [46]): 62.5 µg/mL (≈ 166 µM)
MIC (Pichia sporocuriosa [48]): 31.2 µg/mL (≈ 82.9 µM)
SMILES: CCCCCC(=O)Nc1cc2c(cc1F)c(=O)c(C(=O)OCC)cn2CC
IC50 [1]: 8.6 µM
IC50 [4]: 9.8 µM
IC50 (A549 [6]): 8.9 µM
IC50 [10]: 88.2 µM
Ratio IC50 (IMR-90 [11]): 9
MBC (Staphylococcus aureus [12]): 7.8 µg/mL (≈ 20.7 µM)
MFC (Candida albicans [13]): 125 µg/mL (≈ 332 µM)
MFC (Candida albicans [14]): 62.5 µg/mL (≈ 166 µM)
MFC ([Candida] aaseri [15]): 62.5 µg/mL (≈ 166 µM)
MFC (Candida albicans [16]): 31.2 µg/mL (≈ 82.9 µM)
Ratio IC50 (SK-OV-3): 10.2
MIC (Raoultella planticola): > 125 µg/mL
MBC (Escherichia coli [21]): 31.2 µg/mL (≈ 82.9 µM)
MFC (Candida albicans [24]): 62.6 µg/mL (≈ 166 µM)
MFC (Candida albicans [29]): 62.5 µg/mL (≈ 166 µM)
MFC (Candida albicans [30]): 62.5 µg/mL (≈ 166 µM)
MFC (Pichia kudriavzevii [31]): 62.5 µg/mL (≈ 166 µM)
MFC (Pichia sporocuriosa [32]): 62.5 µg/mL (≈ 166 µM)
IC50 (MCF7): 9.8 µM
MBC (Staphylococcus aureus [33]): 31.2 µg/mL (≈ 82.9 µM)
MFC (Candida albicans [34]): 62.5 µg/mL (≈ 166 µM)
MBC (Bacillus subtilis [36]): 7.8 µg/mL (≈ 20.7 µM)
MFC (Candida parapsilosis [40]): 62.5 µg/mL (≈ 166 µM)
Ratio IC50 (IMR-90 [42]): 9
MFC (Candida albicans [43]): 62.5 µg/mL (≈ 166 µM)
Ratio IC50 (A549 [44]): 9.9
MFC (Candida albicans [45]): 31.2 µg/mL (≈ 82.9 µM)
MFC (Nakaseomyces glabratus [47]): 31.2 µg/mL (≈ 82.9 µM)
